Test system: Plasmodium berghei
Assay: Luciferase/luciferin-expressing antifolate-resistant parasites were used to infect a culture of HepG2 cells that were pre-incubated with compounds. Infected hepatocytes emit light due to the luciferase reaction. Assay results are presented as the percent inhibition of light emission compared to control. […]
Assay type: functional
Settings: sporozoite; for IC90: read-out: LUCIFERASE INFECTION ASSAY - IC90
[1] = read-out: LUCIFERASE INFECTION ASSAY - IC50

Structure (SMILES) | IC90 | IC50 [1] | further results
C=CCn1c(C)cc(C(=O)CNC(=O)Nc2ccccc2)c1C | > 10 µM | – | IC50 (HEPG2TOX_HILL_SLOPE 12.5, HEPG2TOX_R_SQUARED 0.766, PBLUC_HILL_SLOPE 0.462, PBLUC_R_SQUARED 0.648, read-out: LUCIFERASE INFECTION ASSAY - IC50): 0.495 µM
O=C(Nc1ccc2nc(Cc3ccccc3)nn2c1)c1cccc(Cl)c1 | 1.48 µM | – | IC50 (HEPG2TOX_HILL_SLOPE 2.06, HEPG2TOX_R_SQUARED 0.967, PBLUC_HILL_SLOPE 11.3, PBLUC_R_SQUARED 0.609, read-out: LUCIFERASE INFECTION ASSAY - IC50): 1.22 µM
CCCNC(=O)c1c(NC(=O)c2cccc(OC)c2)nc2ccc(C)cn12 | 8.77 µM | – | IC50 (HEPG2TOX_HILL_SLOPE 7.34, HEPG2TOX_R_SQUARED 0.277, PBLUC_HILL_SLOPE 3.84, PBLUC_R_SQUARED 0.328, read-out: LUCIFERASE INFECTION ASSAY - IC50): 4.95 µM
CCNC(=O)C1(C)CCCN1Cc1ccc(-c2ccccc2)cc1 (centres undefined) | > 10.2 µM | – | IC50 (HEPG2TOX_HILL_SLOPE 7.75, HEPG2TOX_R_SQUARED 0.0398, PBLUC_HILL_SLOPE 14.9, PBLUC_R_SQUARED 0.606, read-out: LUCIFERASE INFECTION ASSAY - IC50): 9.52 µM
C/C(=N\NC(=S)Nc1ccccc1)c1ccn[nH]1 | > 12.7 µM | – | IC50 (FFLUC_HILL_SLOPE 48.7, FFLUC_R_SQUARED 0.514, PBLUC_HILL_SLOPE 3.68, PBLUC_R_SQUARED 0.194, read-out: LUCIFERASE INFECTION ASSAY - IC50): 8.67 µM
O=C(Nc1cc(C(F)(F)F)cc(C(F)(F)F)c1)Nc1cc(C(F)(F)F)cc(C(F)(F)F)c1 | > 6.81 µM | > 6.81 µM | –
C=S(NC(=O)Nc1ccc(Cl)cc1)c1sc(Cl)c2c1C(=O)CCC2 (centres undefined) | > 8.22 µM | > 8.22 µM | –
COc1ccc(CNC(=O)c2ccc(C3(CNc4cccc(OC)c4)CC3)cc2)cc1 | > 10 µM | > 10 µM | –
OC(c1cc(F)c(F)c(F)c1)c1nnc(Nc2ccc(F)c(Cl)c2)s1 (centres undefined) | > 10 µM | – | IC50 (FFLUC_HILL_SLOPE 0.27, FFLUC_R_SQUARED 0.307, PBLUC_HILL_SLOPE 3.7, PBLUC_R_SQUARED 0.113, read-out: LUCIFERASE INFECTION ASSAY - IC50): 8.96 µM
CCCCc1ccc(C(=O)Nc2nc3ccc(C)cn3c2C(=O)NCCC)cc1 | 3.18 µM | – | IC50 (HEPG2TOX_HILL_SLOPE 1.88, HEPG2TOX_R_SQUARED 0.855, PBLUC_HILL_SLOPE 16.2, PBLUC_R_SQUARED 0.661, read-out: LUCIFERASE INFECTION ASSAY - IC50): 2.78 µM
CCC(CO)NC(=S)Nc1cc(C(F)(F)F)cc(C(F)(F)F)c1 (centres undefined) | > 9.16 µM | > 9.16 µM | –
CC(C)c1ccc(OCC(=O)Nc2ccccc2C(F)(F)F)cc1 | > 9.78 µM | > 9.78 µM | –
COC(=O)CCSc1c2ccc(Cl)cc2nc2ccc(OC)cc12 | 0.454 µM | – | IC50 (PBLUC_HILL_SLOPE 2.8, PBLUC_R_SQUARED 0.704, read-out: LUCIFERASE INFECTION ASSAY - IC50): 0.207 µM
O=C(Nc1nc2ccccc2[nH]1)c1cccc(S(=O)(=O)N(Cc2ccccc2)c2ccccc2Cl)c1 | 3.66 µM | – | IC50 (PBLUC_HILL_SLOPE 15.7, PBLUC_R_SQUARED 0.534, read-out: LUCIFERASE INFECTION ASSAY - IC50): 3.18 µM
O=C(CCN1C(=O)c2ccccc2C1=O)OCc1cc(=O)oc2cc(O)ccc12 | > 10 µM | > 10 µM | –
Cc1cc(/C=C(\C#N)C(=O)OCc2ccccn2)c(C)n1CC(C)C | > 10 µM | – | IC50 (PBLUC_HILL_SLOPE 0.483, PBLUC_R_SQUARED 0.335, read-out: LUCIFERASE INFECTION ASSAY - IC50): 6.62 µM
COc1ccc(Nc2cc(C)nc(-n3nc(C)cc3C)n2)cc1 | 4.19 µM | – | IC50 (HEPG2TOX_HILL_SLOPE 0.695, HEPG2TOX_R_SQUARED 0.68, PBLUC_HILL_SLOPE 2.57, PBLUC_R_SQUARED 0.661, read-out: LUCIFERASE INFECTION ASSAY - IC50): 1.78 µM
Cc1cccc(C=C(C(=O)Nc2ccccc2Cl)C(=O)Nc2ccccc2Cl)c1 | > 10 µM | > 10 µM | –
O=C(CN(Cc1ccco1)S(=O)(=O)c1ccccc1F)Nc1ccc(SC(F)F)cc1 | > 10 µM | – | IC50 (PBLUC_HILL_SLOPE 1.6, PBLUC_R_SQUARED 0.718, read-out: LUCIFERASE INFECTION ASSAY - IC50): 3.47 µM
COc1ccc(-c2nnc(SCC(=O)c3cc(F)ccc3OC)[nH]2)cc1 | > 10 µM | – | IC50 (HEPG2TOX_HILL_SLOPE 0.475, HEPG2TOX_R_SQUARED 0.679, read-out: LUCIFERASE INFECTION ASSAY - IC50): > 10 µM
Cc1cc(NC(=O)c2cc(-c3cccs3)nc3ccccc23)n(-c2ccccn2)n1 | 4.61 µM | – | IC50 (HEPG2TOX_HILL_SLOPE 1.34, HEPG2TOX_R_SQUARED 0.908, PBLUC_HILL_SLOPE 3.47, PBLUC_R_SQUARED 0.53, read-out: LUCIFERASE INFECTION ASSAY - IC50): 2.45 µM

Structure (SMILES) | IC90 | IC50 [1] | further results
COc1cc(-c2nc3ccc(NC(=O)COc4ccccc4)cn3n2)cc(OC)c1OC | > 10 µM | – | IC50 (PBLUC_HILL_SLOPE 1.9, PBLUC_R_SQUARED 0.239, read-out: LUCIFERASE INFECTION ASSAY - IC50): 5.59 µM
COCCNc1cc(C)nc2c(-c3ccc(C)cc3)c(C)nn12 | > 10.6 µM | – | IC50 (HEPG2TOX_HILL_SLOPE 7.65, HEPG2TOX_R_SQUARED 0.721, PBLUC_HILL_SLOPE 1.1, PBLUC_R_SQUARED 0.545, read-out: LUCIFERASE INFECTION ASSAY - IC50): 3.65 µM
O=S(=O)(c1ccc(CNc2ncnc3scc(-c4ccc(F)cc4)c23)s1)N1CCCC1 | > 10 µM | – | IC50 (FFLUC_HILL_SLOPE 2.33, FFLUC_R_SQUARED 0.668, PBLUC_HILL_SLOPE 11.9, PBLUC_R_SQUARED 0.757, read-out: LUCIFERASE INFECTION ASSAY - IC50): 8.74 µM
CCc1ccc(CNCc2ccc3c(c2)OCO3)cc1 | > 12.3 µM | > 12.3 µM | –
O=C(COc1ccc2[nH]c3ccccc3c(=O)c2c1)Nc1ccccc1Cc1ccccc1 | 0.11 µM | – | IC50 (PBLUC_HILL_SLOPE 1.04, PBLUC_R_SQUARED 0.893, read-out: LUCIFERASE INFECTION ASSAY - IC50): 0.0133 µM
O=C(/C(=C/c1ccc(N2CCOCC2)cc1)c1nc2ccccc2[nH]1)c1cccc(Cl)c1 | > 10 µM | > 10 µM | –
CCN(CC)C(=O)CN1CCN(C(=O)c2ccc(S(=O)(=O)N3CCOCC3)cc2)CC1 | > 10 µM | > 10 µM | –
C/C(N)=C(/C#N)C(=O)COC(=O)CCN1C(=O)C2CC=CCC2C1=O (centres undefined) | > 10 µM | > 10 µM | –
Cc1ccc2c(CSc3nc(N)c(C#N)cc3C#N)cc(=O)oc2c1C | 2.94 µM | – | IC50 (FFLUC_HILL_SLOPE 4.09, FFLUC_R_SQUARED 0.386, HEPG2TOX_HILL_SLOPE 1.27, HEPG2TOX_R_SQUARED 0.917, PBLUC_HILL_SLOPE 1.89, PBLUC_R_SQUARED 0.826, read-out: LUCIFERASE INFECTION ASSAY - IC50): 0.918 µM
Cc1ccccc1-c1cc2c(cn1)nc(NCc1ccccc1F)n2C | 8.53 µM | – | IC50 (HEPG2TOX_HILL_SLOPE 2.16, HEPG2TOX_R_SQUARED 0.829, PBLUC_HILL_SLOPE 2.78, PBLUC_R_SQUARED 0.577, read-out: LUCIFERASE INFECTION ASSAY - IC50): 3.87 µM
CC(C)CN(C(=O)c1ccc(N2CCCC2)c([N+](=O)[O-])c1)c1nc2ccccc2s1 | 0.595 µM | – | IC50 (FFLUC_HILL_SLOPE 0.859, FFLUC_R_SQUARED 0.184, HEPG2TOX_HILL_SLOPE 0.259, HEPG2TOX_R_SQUARED 0.321, PBLUC_HILL_SLOPE 3.83, PBLUC_R_SQUARED 0.838, read-out: LUCIFERASE INFECTION ASSAY - IC50): 0.336 µM
CNc1nc2cnc(Nc3cccc(C(F)(F)F)c3)cc2n1Cc1ccco1 | > 10 µM | – | IC50 (HEPG2TOX_HILL_SLOPE 2.71, HEPG2TOX_R_SQUARED 0.929, read-out: LUCIFERASE INFECTION ASSAY - IC50): > 10 µM
CNc1nc2cnc(Nc3cccc(C)c3)cc2n1-c1cc(OC)c(OC)c(OC)c1 | > 10 µM | > 10 µM | –
NC(CCc1ccccc1)c1csc(NC(=O)Nc2cccc3ccccc23)n1 (centres undefined) | > 8.2 µM | 5.11 µM | –
OC1CCC(Nc2ccn3nc(-c4cccc(OCc5ccccc5)c4)cc3n2)CC1 (centres undefined) | 7.29 µM | – | IC50 (PBLUC_HILL_SLOPE 2.85, PBLUC_R_SQUARED 0.208, read-out: LUCIFERASE INFECTION ASSAY - IC50): 3.37 µM
CC(C)NC(=O)Nc1ccc(OCc2ncc(C(F)(F)F)cc2Cl)cc1 | > 8.51 µM | – | IC50 (FFLUC_HILL_SLOPE 8.07, FFLUC_R_SQUARED 0.113, HEPG2TOX_HILL_SLOPE 6.87, HEPG2TOX_R_SQUARED 0.428, PBLUC_HILL_SLOPE 0.555, PBLUC_R_SQUARED 0.618, read-out: LUCIFERASE INFECTION ASSAY - IC50): 1.56 µM
CC(C)C(=O)NCc1coc(-c2cccs2)n1 | > 10 µM | > 10 µM | –
COc1cc(/C=N/NC(=O)c2ccccc2NS(=O)(=O)c2cccs2)ccc1OCCC(C)C | 1.06 µM | – | IC50 (PBLUC_HILL_SLOPE 1.78, PBLUC_R_SQUARED 0.852, read-out: LUCIFERASE INFECTION ASSAY - IC50): 0.307 µM
C=C(C#N)CN1CCN(CC(=C)C#N)CC1 | 14.9 µM | – | IC50 (HEPG2TOX_HILL_SLOPE 11.9, HEPG2TOX_R_SQUARED 0.949, PBLUC_HILL_SLOPE 23.6, PBLUC_R_SQUARED 0.193, read-out: LUCIFERASE INFECTION ASSAY - IC50): 13.6 µM
CCC(C)(C)c1ccc(OCC(=O)Nc2cccc(-c3nc(C)sc3C(=O)Nc3cc(Cl)ccc3Cl)c2)c(C(C)(C)CC)c1 | > 10 µM | > 10 µM | –
COc1ccc(-c2cnc3cnc(-c4ccccc4N(C)C)cn23)cc1 | 0.409 µM | – | IC50 (HEPG2TOX_HILL_SLOPE 0.622, HEPG2TOX_R_SQUARED 0.863, PBLUC_HILL_SLOPE 8.14, PBLUC_R_SQUARED 0.832, read-out: LUCIFERASE INFECTION ASSAY - IC50): 0.312 µM
